Results: PubChem BioAssay (NCI)
Values joined by “and” are separate entries in the source; they are usually repeats but may differ in a detail not shown here. Equal entries are not always repeated.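 Step 1: Grow cells in 96-well plates. Step 2: Expose to compound for 48 hours at 5 concentrations. Step 3: Interpolate endpoints linearly; if unreached, use highest concentration. At the GI50, growth is halved. Definition used: TGI = concentration required for complete inhibition of growth.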 Where a SMILES comes first, the peptide text is derived from it. [ ]: non-standard residue; d: D form. 2Nal = N[CH](Cc1ccc2ccccc2c1)C(=O)O

How the values were obtained:
Assay in all cases: DTP human tumour cell line panel, 48 h
[1] = tested on: SF-268 CNS
[2] = tested on: OVCAR-4 ovarian
[3] = tested on: CCRF-CEM leukemia
[4] = tested on: MOLT-4 leukemia
[5] = tested on: SK-MEL-2 melanoma
[6] = tested on: EKVX NSCLC
[7] = tested on: NCI-H23 lung
[8] = tested on: SF-539 CNS
[9] = tested on: HOP-92 NSCLC
[10] = tested on: RXF 393 renal

## COc1ccc(OC)c(CCc2cc(OC)c(OC)cc2C)c1
[1]
  TGI: > 100 µM
[2]
  TGI: > 100 µM
[3]
  TGI: > 100 µM
[4]
  TGI: > 100 µM
[5]
  TGI: > 100 µM
[6]
  TGI: > 100 µM
[7]
  TGI: > 100 µM

## COc1ccc(C(=O)C(C(=O)C(=O)Nc2nc3ccc(OC)cc3s2)c2ccc(OC)cc2)cc1 (configuration not stated)
[8]
  TGI: > 100 µM
[1]
  TGI: > 100 µM
[2]
  TGI: > 100 µM
[9]
  TGI: > 100 µM
[3]
  TGI: > 100 µM
[4]
  TGI: > 100 µM
[5]
  TGI: > 100 µM
[6]
  TGI: > 100 µM
[7]
  TGI: > 100 µM

## Cc1ccc(C(=O)/C=C/c2ccccc2Cl)cc1
[8]
  TGI: 38.9 µM
[1]
  TGI: 48 µM
[2]
  TGI: 34.6 µM
[9]
  TGI: 63.5 µM
[3]
  TGI: 42.6 µM
[4]
  TGI: 56.1 µM
[6]
  TGI: 33.6 µM
[7]
  TGI: 40.1 µM

## C=CC1=C(C)C2=NC1=CC1=NC(=C(CC)/C1=C/O)C=C1C=C3C(=O)C(C(=O)OC)C(=C4NC(=C2)C(C)C4CCC(=O)OC/C=C(\C)CCCC(C)CCCC(C)CCCC(C)C)C3=N1 (configuration not stated) (tested in a mixture with another compound)
[8]
  TGI: > 100 µM
[1]
  TGI: > 100 µM
[2]
  TGI: > 100 µM
[9]
  TGI: > 100 µM
[4]
  TGI: > 100 µM
[5]
  TGI: > 100 µM
[6]
  TGI: > 100 µM
[7]
  TGI: > 100 µM

## CC(NC(=O)C(N)Cc1ccccc1)C(=O)NC(Cc1ccc(O)cc1)C(=O)NC(Cc1c[nH]c2ccccc12)C(=O)NC(CCCCN)C(=O)NC(C(=O)NC(C)C(=O)NC(Cc1ccc2ccccc2c1)C(N)=O)C(C)C (configuration not stated) (H-FAYWKVA[2Nal]-NH2; configuration not given here)
[8]
  GI50: 21.8 µM
  TGI: > 12.5 µM and 62.4 µM
[1]
  TGI: > 12.5 µM
[2]
  GI50: 27.2 µM
  TGI: > 12.5 µM and 84.3 µM
[10]
  GI50: 17.7 µM
  TGI: > 12.5 µM and 36.5 µM
[3]
  GI50: 16 µM
  TGI: > 12.5 µM and 29.4 µM
[4]
  GI50: 16.7 µM
  TGI: 32 µM
[5]
  GI50: 25.1 µM
  TGI: > 12.5 µM and 52.1 µM
[6]
  GI50: 25.9 µM
  TGI: > 12.5 µM and 81 µM
[7]
  GI50: 25.7 µM
  TGI: > 12.5 µM and 75.4 µM

## Cc1ccc(NC(=O)SCCC(=O)O)cc1NC(=O)SCCC(=O)O
[8]
  TGI: > 100 µM
[1]
  TGI: > 100 µM
[2]
  TGI: > 100 µM
[10]
  TGI: > 100 µM
[3]
  TGI: > 100 µM
[4]
  TGI: > 100 µM
[5]
  TGI: > 100 µM
[6]
  TGI: > 100 µM
[7]
  TGI: > 100 µM

## COc1ccc2cc(C(=O)/C=C/c3ccc(OC)c(OC)c3)ccc2c1
[8]
  GI50: 3.77 µM
  TGI: 16.3 µM
[1]
  GI50: 19.2 µM
  TGI: 55.1 µM
[9]
  GI50: 13.2 µM
  TGI: 80.3 µM
[4]
  GI50: 5.97 µM
  TGI: > 100 µM
[6]
  GI50: 22 µM
  TGI: 68.4 µM

## COc1ccc(-c2c(N)[n+]([O-])c3cc(C)c(C)cc3[n+]2[O-])cc1OC
[8]
  TGI: > 100 µM
[1]
  TGI: > 100 µM
[2]
  TGI: > 100 µM
[3]
  TGI: > 100 µM
[4]
  TGI: > 100 µM
[5]
  TGI: > 100 µM
[6]
  TGI: > 100 µM
[7]
  TGI: > 100 µM

## CCCCCCCCCCCCCCCCCC(=O)NCCCNCCCNC(=O)CCCCCCCCCCCCCCCCC
[1]
  TGI: > 100 µM
[2]
  TGI: > 100 µM
[9]
  TGI: > 100 µM
[3]
  TGI: > 100 µM
[4]
  TGI: > 100 µM
[7]
  TGI: > 100 µM

## COc1cc2cc(C(=O)O)[nH]c2cc1OCc1ccccc1
[8]
  GI50: > 100 µM
  TGI: > 100 µM
[1]
  GI50: > 100 µM
  TGI: > 100 µM
[2]
  GI50: > 100 µM
  TGI: > 100 µM
[10]
  GI50: > 100 µM
  TGI: > 100 µM
[3]
  GI50: > 100 µM
  TGI: > 100 µM
[4]
  GI50: > 100 µM
  TGI: > 100 µM
[5]
  GI50: 44.9 µM
  TGI: > 100 µM
[6]
  GI50: > 100 µM
  TGI: > 100 µM
[7]
  GI50: > 100 µM
  TGI: > 100 µM

## O=C(O)C1Cc2nc[nH]c2CN1 (configuration not stated)
[8]
  TGI: > 100 µM
[1]
  TGI: > 100 µM
[2]
  TGI: > 100 µM
[9]
  TGI: > 100 µM
[3]
  TGI: > 100 µM
[4]
  TGI: > 100 µM
[5]
  TGI: > 100 µM
[6]
  TGI: > 100 µM
[7]
  TGI: > 100 µM

## CC1=CCC2(C#N)CCC1C2=O (configuration not stated)
[8]
  TGI: > 100 µM
[1]
  TGI: > 100 µM
[2]
  TGI: > 100 µM
[3]
  TGI: > 100 µM
[4]
  TGI: > 100 µM
[5]
  TGI: > 100 µM
[6]
  TGI: > 100 µM
[7]
  TGI: > 100 µM

## CC(=O)N1c2ccccc2C23CCN4CC5=CCOC(O)C(C5CC42)C13 (configuration not stated)
[8]
  TGI: > 100 µM
[1]
  TGI: > 100 µM
[2]
  TGI: > 100 µM
[9]
  TGI: > 100 µM
[3]
  TGI: > 100 µM
[4]
  TGI: > 100 µM
[5]
  TGI: > 100 µM
[6]
  TGI: > 100 µM
[7]
  TGI: > 100 µM

## COC(=O)C1CCc2c(OC)ccc(OC)c2C1=O (configuration not stated)
[8]
  TGI: > 100 µM
[2]
  TGI: > 100 µM
[9]
  TGI: > 100 µM
[3]
  TGI: > 100 µM
[4]
  TGI: > 100 µM
[5]
  TGI: > 100 µM
[6]
  TGI: > 100 µM
[7]
  TGI: > 100 µM

## CC1=CC(C)C(O)C(C)/C=C/C(O)C/C=C(/C)C(=O)CC(O)C(C)\C=C/C=C/C=C\C(=O)NC2=C(O)c3cc(C)c(O)c(c3C(=O)C2=O)C1=O (configuration not stated)
[8]
  TGI: > 100 µM
[1]
  TGI: > 100 µM
[2]
  TGI: > 100 µM
[9]
  TGI: > 100 µM
[3]
  TGI: > 100 µM
[4]
  TGI: > 100 µM
[5]
  TGI: > 100 µM
[6]
  TGI: > 100 µM
[7]
  TGI: > 100 µM

## C=C(C)C1CC[C@]2(C(=O)O)CCC3(C)[C@H](CCC4[C@@]5(C)CC[C@H](OC6OC(CO)C(O)C6OC6OC(C)C(O)C(O)C6O)[C@@](C)(CO)C5CC[C@]43C)C12 (some centres not stated)
[8]
  TGI: > 100 µM
[1]
  TGI: > 100 µM
[2]
  TGI: > 100 µM
[10]
  TGI: > 100 µM
[3]
  TGI: > 100 µM
[4]
  TGI: > 100 µM
[5]
  TGI: > 100 µM
[6]
  TGI: > 100 µM
[7]
  TGI: > 100 µM
